Data on 16 compounds can be found in patent publication US20150299218A1, “Heterocyclic Compounds As Inhibitors Of The Sodium Iodide Symporter” (COMMISSARIAT A L'ENERGIE ATOMIQUE ET AUX ENERGIES …, priority 2012, published 2015).

For one series, the target named is T1, sodium iodide symporter (NIS) (Rattus norvegicus, UniProt Q63008).
T1 construct: endogenous in cells; host or cells: FRTL5 (rat thyroid-derived cells)
T1 sequence (Q63008 1-618): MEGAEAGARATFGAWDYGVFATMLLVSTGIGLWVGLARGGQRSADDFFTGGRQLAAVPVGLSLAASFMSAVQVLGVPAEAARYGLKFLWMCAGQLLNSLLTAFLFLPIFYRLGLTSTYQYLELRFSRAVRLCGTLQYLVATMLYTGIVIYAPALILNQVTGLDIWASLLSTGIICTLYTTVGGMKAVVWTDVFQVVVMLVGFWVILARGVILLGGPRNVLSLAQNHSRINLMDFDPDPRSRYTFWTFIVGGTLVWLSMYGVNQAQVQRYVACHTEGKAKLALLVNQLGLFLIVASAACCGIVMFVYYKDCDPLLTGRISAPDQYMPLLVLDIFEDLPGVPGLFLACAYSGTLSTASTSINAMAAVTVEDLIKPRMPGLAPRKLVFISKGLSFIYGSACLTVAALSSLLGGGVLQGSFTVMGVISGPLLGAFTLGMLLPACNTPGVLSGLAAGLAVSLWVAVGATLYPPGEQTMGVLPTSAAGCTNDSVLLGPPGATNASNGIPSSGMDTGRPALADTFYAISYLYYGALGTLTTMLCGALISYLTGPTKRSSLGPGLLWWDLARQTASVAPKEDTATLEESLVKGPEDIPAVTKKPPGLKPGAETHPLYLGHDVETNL
In words: radioiodide uptake assay in FRTL5 cells (24-well plate). It counts as cell-based. As to conditions: 60 min, NaI 10 μM, averaged from two to four independent experiments, read-out: IC50 against iodide uptake in FRTL5 cells. On the procedure: In the framework of the invention, the NIS inhibitor is evaluated as follow: rat thyroid-derived cells (FRTL5 cells expressing NIS) are incubated during 1 h with iode and 125-I as a tracer, and in the presence of various concentration of compound. For each tested concentration of compound, the amount of iodide inside the cells is quantified by radioactive counting. The half-maximum inhibitory concentration (IC50) is evaluated for each compound by regression analysis (to the Hill equation) from dose-response data. A detailed protocol is provided in the experimental section, and also in N. Lecat-Guillet et al., ChemMedChem, 2008.
The synthesized compounds were evaluated for their ability to inhibit iodide entrapment in FRTL5 cells using a rodiodide uptake assay. The IC50 values were measured in at least two independent experiments.
The biological activity of each compound was determined in FRTL5 cells, using a 24-well plate format radioiodide uptake assay. Each experiment was run in quadruplicate and at least twice independently. Compound potency was expressed as IC50, the concentration of compound necessary to achieve 50% inhibition of iodide uptake. NaClO4 and the Compound 2 were tested as assay controls.
FRTL5 cells were cultured in Coon's modified F12 medium supplemented with 5% heat-inactivated fetal bovine serum (Invitrogen), 2 mM L-glutamine, 100 U/mL penicillin, 0.1 mg/mL streptomycin, 10 μg/mL insulin, 10 nM hydrocortisone, 10 ng/mL Gly-His-Lys acetate, 1 mU/mL TSH, 5 μg/mL transferrin at 37° C. and 5% CO2. For iodide uptake assays, 1.25 mL of FRTL5 cells with density of 250,000 cells/mL were dispensed in each well of clear flat-bottomed 24-well polystyrene microplates (BD Falcon 3047), and further cultured until confluence reached 70-90% (3-4 days).
Prepare ˜1.5 mL/plate of an intermediate “10-fold” radioiodide uptake buffer solution: NaI (100 μM) and [125-I]-NaI (20 μCi/mL) in uptake buffer (HBSS/Hepes).
For each concentration of compound tested, prepare ˜2.5 mL of compound solutions in uptake buffer (HBSS/Hepes 10 mM) at 1.12 fold the final concentration, so that 450 μL of this solution plus 50 μL of radioiodide uptake buffer makes the desired final concentration (NaI 10 μM final, 1 μCi/well).
The procedure is performed at 20±2° C. in a well ventilated hood. Culture medium of FRTL5 cells is removed by aspiration. Compound solutions are added to the 24-well plate in quadruplicate (450 μL/well) immediately followed by [125I]-NaI radioiodide uptake buffer (50 μL/well, 10 μM final, 1 μCi/well). The 24-well plate is left to stand for 60 min. Radioactive supernatants are removed by aspiration and the cell are washed twice with 500 μL of cold uptake buffer (HBSS/Hepes at 4° C.). Finally, the residual supernatant is removed by aspiration and 500 μL of lysis buffer (SDS 0.1%, triton 0.5%) is added to each well. The 24-well plate is gently agitated for 60-120 min. The radioactive cell lysates are collected and placed into scintillation vials. Scintillation cocktail (Ultima gold LLT, Perkin Elmer) is added to each vial (4 mL) and the radioactivity is measured (Wallac 1409). For IC50 determination, mean DPM values were fitted by non-linear regression (least square) to the four-parameter sigmoidal Hill equation.
IC50 values are averaged from two to four independent experiments. A standard deviation of 2-fold was judged acceptable. NaClO4 and Compound 2 were tested as assay controls.
Consider `Nc1cccc(C2OCCc3c2[nH]c2ccccc32)c1` (stereo not shown) [Compound 13, 1-(3-aminophenyl)-1,3,4,9-tetrahydropyrano[3,4-b]indole], for which the IC50 was 1.1 nM.
Same read-out and setting: as for `Brc1cccc(C2OCCc3c2[nH]c2ccccc32)c1` (stereo not shown) [Compound 11, 1-(3-bromophenyl)-1,3,4,9-tetrahydropyrano[3,4-b]indole], the figure is 170 nM; as for `O=[N+]([O-])c1cccc(C2SCCc3c2[nH]c2ccccc32)c1` (stereo not shown) [Compound 6, 1-(3-nitrophenyl)-1,3,4,9-tetrahydrathiopyrano[3,4-b]indole], 140 nM.
Take `Fc1ccc(C2OCCc3c2[nH]c2ccccc32)cc1Cl` (stereo not shown) [Compound 12, 1-(3-chloro-4-fluorophenyl)-1,3,4,9-tetrahydropyrano[3,4-b]indole]: the IC50 was 200 nM.
With `O=[N+]([O-])c1cccc(C2NCCc3c2oc2ccccc32)c1` (stereo not shown) [Compound 5, 1-(3-nitrophenyl)-1,2,3,4-tetrahydro[1]benzofuro[2,3-c]pyridine], the IC50 worked out at 200 nM.
As to `Clc1cccc(C2OCCc3c2[nH]c2ccccc32)c1` (stereo not shown) [Compound 9, 1-(3-chlorophenyl)-1,3,4,9-tetrahydropyrano[3,4-b]indole], the IC50 stood at 140 nM.
As to `O=[N+]([O-])c1cccc(C2OCCc3c2[nH]c2ccccc32)c1` (stereo not shown) [Compound 4, 1-(3-nitrophenyl)-1,3,4,9-tetrahydropyrano[3,4-b]indole], the concentration for half-maximal inhibition (IC50) was 5.3 nM.
Consider `c1cc2c(c(C3OCCc4c3[nH]c3ccccc43)c1)OCO2` (stereo not shown) [Compound 8, 1-(benzo[d][1,3]dioxol-4-yl)-1,3,4,9-tetrahydropyrano[3,4-b]indole], for which the IC50 was 0.41 nM.
The same measure, in the same setting: as for `COc1ccc(F)c(C2OCCc3c2[nH]c2ccccc32)c1` (stereo not shown) [Compound 10, 1-(2-fluoro-5-methoxyphenyl)-1,3,4,9-tetrahydropyrano[3,4-b]indole], the figure is 57 nM; as for `Fc1ccc(F)c(C2OCCc3c2[nH]c2ccccc32)c1` (stereo not shown) [Compound 7, 1-(2,5-difluorophenyl)-1,3,4,9-tetrahydropyrano[3,4-b]indole], 170 nM.

Tested on in another series: not given
Test: not given
As to conditions: concentration up to 200 μM; cited from earlier work.
As to `Brc1cccc(C2NCCc3c2[nH]c2ccccc32)c1` (stereo not shown) [Compound 1], the cytotoxicity entry is reported as “not cytotoxic”.
With `O=[N+]([O-])c1cccc(C2NCCc3c2[nH]c2ccccc32)c1` (stereo not shown) [Compound 2], the cytotoxicity result was “not cytotoxic”.

In the next series the target is T1, sodium iodide symporter (NIS).
Test: not given
Conditions: rat thyroid-derived cells (FRTL5); F. Waltz et al. 2010; read-out: IC50 competitive inhibition of iodide transport in FRTL5; cited from earlier work.
For `[O-][Cl+3]([O-])([O-])O` [ClO4^−], the half-inhibitory concentration (IC50) is 140 nM.
For the compound `O=[N+]([O-])O` [NO3^−], the IC50 is 250000 nM.
For `F[P-](F)(F)(F)(F)F` [PF6^−], the IC50 was 9 nM.
Take `F[B-](F)(F)F` [BF4^−]: the IC50 was 750 nM.
